Legend:
menin protein = biological target: T1, menin protein (Homo sapiens, UniProt O00255); test: Fluorescence polarization (FP) competitive binding assay, menin binding affinity; details: FP competition with FAM-MM2 probe 2 nM, menin 4 nM, 30 minutes room temperature
T1 sequence (O00255 1-610): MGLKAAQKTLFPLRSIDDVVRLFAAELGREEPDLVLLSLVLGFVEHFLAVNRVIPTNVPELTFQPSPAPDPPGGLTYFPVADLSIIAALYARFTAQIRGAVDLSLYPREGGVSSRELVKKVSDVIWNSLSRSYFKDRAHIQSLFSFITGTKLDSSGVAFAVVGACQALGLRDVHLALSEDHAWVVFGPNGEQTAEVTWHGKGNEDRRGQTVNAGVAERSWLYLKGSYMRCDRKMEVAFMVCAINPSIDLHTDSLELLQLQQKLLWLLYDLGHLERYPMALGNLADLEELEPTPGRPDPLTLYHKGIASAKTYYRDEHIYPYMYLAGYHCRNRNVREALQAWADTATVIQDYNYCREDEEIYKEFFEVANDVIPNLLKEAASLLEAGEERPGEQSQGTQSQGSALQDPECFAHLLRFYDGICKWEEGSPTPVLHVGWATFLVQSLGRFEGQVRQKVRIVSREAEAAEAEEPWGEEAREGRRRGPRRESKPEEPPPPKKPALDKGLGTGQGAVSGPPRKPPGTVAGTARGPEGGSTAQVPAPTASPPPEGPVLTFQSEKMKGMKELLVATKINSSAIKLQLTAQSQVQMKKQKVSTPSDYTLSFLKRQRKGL
Method in brief: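 Competitive FP with FAM-labeled MLL1 peptide probe FAM-MM2 (2 nM) and menin (4 nM) in PBS, 0.02% bovine γ-globulin, 4% DMSO, 0.01% Triton X-100. After 30 min at room temperature, mP read at 485/530 nm; IC50 from nonlinear regression against probe-only and complex-only controls.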

MOLM13 = test: 7-day proliferation assay (WST-8), cell growth inhibition; format: cell-based; details: Homo sapiens, MOLM-13, 168 h, MOLM13 cells, 7 days
Method in brief: (§1)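 Cells seeded at 2,000-3,000/well were exposed to serially diluted compound for 7 days at 37° C., 5% CO2. Viability was read by WST-8 absorbance at 450 nm after 1-2 h color development; readings normalized to DMSO-treated cells, IC50 by four-parameter nonlinear regression.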

MV4-11 = test: as above; format: cell-based; details: Homo sapiens, MV4-11, 168 h, MV4-11 cells, 7 days
Method in brief: as §1

IC50 (menin protein): 3 nM | IC50 (MOLM13): < 50 nM | IC50 (MV4-11): < 10 nM
Compound: COC(=O)N[C@H]1CCC[C@@H]1[C@](CN1CCC1)(c1cccc(F)c1)C1CCN(CC2CN(c3ccc(S(=O)(=O)C4CN(C(=O)/C=C/CN(C)C)C4)cc3)C2)CC1 [Cpd. No. 5, methyl ((1S,2R)-2-((S)-2-(azetidin-1-yl)-1-(1-((1-(4-((1-((E)-4-(dimethylamino)but-2-enoyl)azetidin-3-yl)sulfonyl)phenyl)azetidin-3-yl)methyl)piperidin-4-yl)-1-(3-fluorophenyl)ethyl)cyclopentyl)carbamate]

Reference: patent publication US20210115018A1, “PIPERIDINE COMPOUNDS AS COVALENT MENIN INHIBITORS” (THE REGENTS OF THE UNIVERSITY OF MICHIGAN, priority 2018, published 2021)
